Experimental data published in patent US20210251955A1, “PREVENTION OF AGE RELATED CLONAL HEMATOPOIESIS AND DISEASES ASSOCIATED THEREWITH” (Yeda Research and Development Co. Ltd., priority 2018, published 2021).
“Also recorded” adds a separate entry of the source.

Assays:
[1] = tested on: K562 cells (parental, SF3B1^K700E, SRSF2^P95H); experiment: RNA-sequencing of parental K562 and isogenic SF3B1^K700E and SRSF2^P95H lines, differential splicing; assay type: cell-based; settings: for Splicing changes relative to DMSO treatment: at the IC50 of each drug in parental K562 cells, regardless of mutation status
Source text: (§1) FIGS. 5A-D illustrate the preferential response of spliceosomal mutant hematopoietic cells to indisulam. (FIG. 5A) IC50 plots of isogenic K562 (left) and NALM-6 (right) cells to indisulam. These are cell with introduction of a spliceosomal gene mutation into the endogenous locus. (FIG. 5B) Western blots of RBM39 in the K562 cells from (FIG. 5A) at increasing doses of indisulam. (FIG. 5C) Log10 IC50 waterfall plots of response of AML cell lines with naturally occurring mutations in splicing factors to indisulam. Red bars represent cells with naturally occurring mutations in splicing factors. (FIG. 5D) Bar plot of number of differential splicing events across parental, SF3B1^K700E/WT, and SRSF2^P95H/WT K562 cells. The numbers above each bar indicate number of differentially spliced events.
Identification and Quantification of Differential Splicing
Isoform ratios for all alternative splicing events were quantified using MISO v2.0. Constitutively spliced exons and introns were quantified using junction-spanning reads. The conditional knockin and knockout mice were compared in a pair-wise manner, and for each pair the analysis was restricted to splicing events with 20 or more reads supporting either or both isoforms, and where the event was alternatively spliced in the sample pair. […] The human AML samples were analyzed by calculating the median isoform ratios across all 28 SRSF2 wildtype samples, and comparing that in a pair-wise manner to each SRSF2 mutant sample, using the same methodology as for the knockin and knockout mice. The Mx1-Cre^+Srsf2^+/+ or Mx1-Cre^+Srsf2^P95H/+E7107-treated mice were compared in a pair-wise manner against the median isoform ratios of their vehicle-treated counterparts, using the same methodology. For the MLL-AF9 AML transformed mice there were sufficient replicates to do a group-based comparison within the Srsf2P95H and wildtype genotypes individually (N=5 for each genotype-treatment combination). E7107- and vehicle-treated mice were compared in a two-sided Wilcoxon rank-sum test, using the total number of isoform reads within each treatment group.
In parallel, RNA-seq was carried out of the same cell lines treated with E7107, a small molecule that inhibits splicing through impeding binding of SF3B1 to the branch point [Finci et al., Genes & Dev. (2018) 32: 309-320].
Thus, both genetic as well pharmacologic degradation of RBM39 disrupts splicing as well as other pathways required for leukemogenicity.

[2] = tested on: spliceosomal-mutant leukemias; settings: PDX, Lee et al. Nat Med (2016); cited from earlier work
spliceosomal-mutant AML = settings: Lee et al. Nat Med (2016); cited from earlier work
[3] = tested on: isogenic K562, TF-1 and NALM-6 cells expressing mutations in SF3B1, SRSF2, U2AF1; experiment: Growth inhibition of isogenic leukemia lines with or without spliceosomal hotspot mutations; assay type: cell-based; settings: isogenic K562, TF-1, NALM-6
Procedure: (§2) (FIG. 4A) Sulfonamides bridge RBM39 to the CUL4-DDB1-DDA1-DCAF15 E3 ubiquitin ligase complex, leading to polyubiquitination and proteasomal degradation of RBM39. IC50 curves of the sulfonamide E7820 in isogenic (FIG. 4B) K562 and (FIG. 4C) NALM6 WT or mutant for SF3B1. (FIG. 4D) Western blots of RBM39 levels+[…] of the sulfonamides Indusulam or E7820 from the cells in (FIG. 4C).
as §1
(§3) The effects of indisulam and the sulfonamide analogue, E7820, were first examined across a panel of 18 genetically diverse AML cell lines.

[4] = tested on: panel of 18 genetically diverse AML cell lines; experiment: Cell viability upon sulfonamide exposure across a panel of 18 AML cell lines; assay type: cell-based
Source text: as §3

RBM39 = molecular target: T1, RBM39 (Homo sapiens, UniProt Q14498+Q66K64); experiment: RBM39 protein levels (Western blot) in isogenic leukemia cell lines; assay type: cell-based
T1 construct: endogenous in cells; host or cells: isogenic K562 / NALM-6 (and TF-1) leukemia cells, wild type or with knock-in of spliceosomal gene mutations
Procedure: as §2, §1
The effects of indisulam and the sulfonamide analogue, E7820, were first examined across a panel of 18 genetically diverse AML cell lines. […]

parental K562 cells = experiment: IC50 in parental K562 cells; assay type: cell-based; settings: Homo sapiens
[5] = tested on: Srsf2^P95H/WT MLL-AF9 AML cells; experiment: In vitro viability (MTS) of isogenic murine MLL-AF9 AML cells, Srsf2 WT vs Srsf2 mutant; assay type: cell-based
Source text: FIGS. 1A-E illustrate the effects of PRMT inhibition on splicing. (FIG. 1A) Diagram of the role of PRMT5 and the type I PRMTs in splicing regulation. PRMTs methylate arginines on splicing proteins to promote spliceosome assembly and are required for proper splicing function. IC50 curves of spliceosomal mutant acute myeloid leukemia cells or their WT counterparts exposed to (FIG. 1B) the PRMT5 inhibitor GSK591 or (FIG. 1C) the PRMT1 inhibitor MS-023. Western blots of (FIG. 1D) symmetric dimethyl arginine (SDMA) or (FIG. 1E) asymmetric dimethyl arginine (ADMA) from the cells in (FIG. 1B) and […] respectively.
FIG. 2 illustrates drug sensitivity of AML cells with SMMs or partial loss of PRMT5 to inhibitors of splicing, PRMTs, or LSD1. MLL-AF9 Srsf2^WT/WT; MLL-AF9 Srsf2^P95H/WT or MLL-AF9 Prmt5^+/− cells were treated for 7 days with the indicated compounds in 384 wells (5 increasing concentrations per compound). Viability at day 7 was scored by MTS assay and reported as the ratio over control treated cells (with equivalent dilution of DMSO). The experiment was conducted in biological triplicate, and each individual run was repeated in technical triplicate. […]
Of note, the SF3B1 inhibitor, E7107, was used in the same assays as a positive control. […] Viability at day 7 was scored by MTS assay and reported as the ratio over control treated cells (with equivalent dilution of DMSO). […]

[6] = tested on: SF3B1 as well as SRSF2-mutant AML and chronic myelomonocytic leukemia (CMML); settings: Seiler et al., Nature Medicine (2018); cited from earlier work

Molecule: CC[C@H](O)[C@@H](C)[C@H]1O[C@@H]1C[C@@](C)(O)/C=C/C=C(\C)[C@H]1OC(=O)C[C@H](O)CC[C@@](C)(O)[C@@H](OC(=O)N2CCN(C3CCCCCC3)CC2)/C=C/[C@@H]1C [E7107]
- Splicing changes relative to DMSO treatment [1]: increased cassette exon skipping and intron retention
- Eradication of leukemia [2]: complete eradication could not be achieved
- Human leukemic cell burden, mutant versus WT [2]: greater reduction in human leukemic cell burden
- Sensitivity of spliceosomal-mutant AML over isogenic WT in vivo (spliceosomal-mutant AML): differentially sensitive

Molecule: Cc1ccc(NS(=O)(=O)c2cccc(C#N)c2)c2[nH]cc(C#N)c12 [E7820]
- Preferential sensitivity of spliceosomal mutant cells to growth inhibition over wild-type [3]: preferentially sensitive
- Sensitivity (cell viability) of most cell lines [4]: sub-micromolar sensitivity
- Degradation of RBM39 (RBM39): dose-dependent degradation of RBM39
- Differential splicing events in SF3B1^K700E cells versus SF3B1 wild-type ([1]; 1 μM E7820): greater number of differential splicing events
- Splicing of SUPT6H, hnRNPH and SRSF10 mRNAs ([1]; E7820 exposure): intron retention that was most pronounced in spliceosomal mutant cells
- Splicing changes relative to DMSO treatment [1]: increased cassette exon skipping and intron retention
- Changes in splicing, E7820 versus E7107 ([1]; equipotent non-toxic doses, within each cell type and splicing category): greater changes in splicing
- IC50 (parental K562 cells): 1 µM

Molecule: O=C(NC[C@H](O)CN1CCc2ccccc2C1)c1ccnc(NC2CCC2)c1 [GSK591]
- Sensitivity of Srsf2-mutant cells versus wildtype [5]: more sensitive

Molecule: CC(C)Oc1ccc(-c2c[nH]cc2CN(C)CCN)cc1 [MS-023]
- Sensitivity of Srsf2-mutant cells versus wildtype [5]: more sensitive

Molecule: NS(=O)(=O)c1ccc(S(=O)(=O)Nc2cccc3c(Cl)c[nH]c23)cc1 [indisulam]
- Preferential sensitivity of spliceosomal mutant cells to growth inhibition over wild-type [3]: preferential effects; also recorded: preferentially sensitive
- Sensitivity (cell viability) of most cell lines [4]: sub-micromolar sensitivity

Molecule: H3B-8800
- Preferential effects in spliceosomal-mutant disease [6]: preferential effects
- Splicing fidelity [6]: dose-dependent reductions in splicing fidelity
